Assay results from PMC9037111, “Structure-based design, synthesis, and biological evaluation of novel piperine–resveratrol hybrids as antiproliferative agents targeting SIRT-2” (RSC Advances, 2021).
Where two headings read alike, the source gives them in different places.

Key:
SIRT2 [1] = target: T1, SIRT2 (Homo sapiens, UniProt Q8IXJ6); test: biochemical; parameters: Sirtuin-TK assay, percent inhibition of human SIRT1 or SIRT2 at 5 and 50 uM
T1 sequence (Q8IXJ6 2-389): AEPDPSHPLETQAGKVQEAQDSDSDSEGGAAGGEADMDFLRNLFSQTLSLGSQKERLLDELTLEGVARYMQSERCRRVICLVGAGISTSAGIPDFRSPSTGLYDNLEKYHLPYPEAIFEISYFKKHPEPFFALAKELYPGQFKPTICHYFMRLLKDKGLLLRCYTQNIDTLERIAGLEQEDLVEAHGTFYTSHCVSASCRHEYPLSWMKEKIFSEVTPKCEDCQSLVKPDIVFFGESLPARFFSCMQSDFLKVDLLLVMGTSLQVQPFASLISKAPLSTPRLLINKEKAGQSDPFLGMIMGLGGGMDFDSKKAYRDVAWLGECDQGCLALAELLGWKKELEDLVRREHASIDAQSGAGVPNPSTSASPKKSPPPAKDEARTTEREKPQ
Protocol: (§1) Sirtuin-TK assay was performed to estimate the Sirtuins inhibitory potential of 5a–h (Tables 2 and 3). The results of this test strongly complemented the findings of cancer cell-based assessments. […] Of the 8 compounds evaluated, 3 analogs (5b, 5e and 5h) were more likely to inhibit Sirt2 (>70% inhibition) than Sirt1 (<50% inhibition) at 50 μM. The other compounds were poor inhibitors of both enzymes. […] 4.2.2. Sirtuin inhibitory assay

SIRT1 = target: T2, SIRT1 (Homo sapiens, UniProt Q96EB6); test: biochemical; parameters: Sirtuin-TK assay, percent inhibition of human SIRT1 or SIRT2 at 5 and 50 uM
T2 sequence (Q96EB6 2-747): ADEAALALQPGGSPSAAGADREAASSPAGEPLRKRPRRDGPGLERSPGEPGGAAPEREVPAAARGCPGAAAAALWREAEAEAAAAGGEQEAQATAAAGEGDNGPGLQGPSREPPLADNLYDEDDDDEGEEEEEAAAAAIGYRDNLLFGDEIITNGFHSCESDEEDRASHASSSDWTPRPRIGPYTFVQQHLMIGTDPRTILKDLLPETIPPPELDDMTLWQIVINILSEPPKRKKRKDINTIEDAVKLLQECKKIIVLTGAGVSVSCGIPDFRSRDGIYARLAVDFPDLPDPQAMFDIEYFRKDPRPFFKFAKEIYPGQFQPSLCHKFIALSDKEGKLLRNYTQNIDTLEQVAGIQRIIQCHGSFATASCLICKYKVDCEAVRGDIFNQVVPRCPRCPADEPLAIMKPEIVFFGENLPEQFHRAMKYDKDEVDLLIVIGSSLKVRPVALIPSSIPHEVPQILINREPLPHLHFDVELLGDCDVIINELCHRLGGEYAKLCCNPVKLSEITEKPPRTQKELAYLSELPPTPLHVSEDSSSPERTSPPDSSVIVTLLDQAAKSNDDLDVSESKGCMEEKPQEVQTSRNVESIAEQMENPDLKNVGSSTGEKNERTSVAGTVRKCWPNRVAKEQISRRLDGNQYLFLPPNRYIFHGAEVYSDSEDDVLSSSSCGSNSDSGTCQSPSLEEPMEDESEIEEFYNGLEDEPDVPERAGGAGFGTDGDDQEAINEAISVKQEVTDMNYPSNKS
Protocol: as §1

SIRT2 [2] = target: T1, SIRT2; test: sirtuin deacetylase inhibition assay, % inhibition at […] ([…] at […]); type: biochemical
T-47D = test: cells; parameters: species or system NCI-60 human tumour cell lines; NCI-60 one-dose screen at 10 uM, percent growth inhibition versus untreated control cells; details: Homo sapiens, T47D; growth inhibition, one dose; read-out: Growth% inhibition / 5c
Protocol: (§2) The antiproliferative activity of the target compounds 5a–h was screened against a panel of 60 cancer cell lines according to NCI-guidelines at concentration of 10 μM. The results for each compound (Table 1) were recorded as the percent of growth inhibition of treated cells compared to untreated control cells. […] In addition, 5b recorded significant activity against leukemia cancer cell lines K-562 and MOLT-4, Non-small cell lung cancer cell lines NCI-H322M and NCI-H460, Colon cancer cell lines COLO 205, HCT-15 and HCT-116, CNS cancer cell lines SF-295 and SF-539, Melanoma cancer cell lines LOX IMVI and UACC-62, Ovarian cancer cell lines NCI/ADR-RES, OVCAR-3, and OVCAR-4, Renal cancer cell lines CAKI-1, ACHN, and UO-31, and Breast cancer MCF7 cell line with growth inhibition percentage between 80 to 95. […] The methodology of the NCI anticancer screening has been described in detail elsewhere (https://dtp.cancer.gov/).[52]

MCF7 = test: cells; parameters: species or system NCI-60 human tumour cell lines; NCI-60 one-dose screen at 10 uM, percent growth inhibition versus untreated control cells; details: Homo sapiens, MCF7; growth inhibition, one dose; read-out: Growth% inhibition / 5c
Protocol: as §2

NCI-H522 = test: cells; parameters: species or system NCI-60 human tumour cell lines; NCI-60 one-dose screen at 10 uM, percent growth inhibition versus untreated control cells; details: Homo sapiens, NCI-H522; growth inhibition, one dose; read-out: Growth% inhibition / 5c
Protocol: as §2

CCRF-CEM = test: cells; parameters: species or system NCI-60 human tumour cell lines; NCI-60 one-dose screen at 10 uM, percent growth inhibition versus untreated control cells; details: Homo sapiens, CCRF-CEM; growth inhibition, one dose; read-out: Growth% inhibition / 5c
Protocol: as §2

K-562 = test: cells; parameters: species or system NCI-60 human tumour cell lines; NCI-60 one-dose screen at 10 uM, percent growth inhibition versus untreated control cells; details: Homo sapiens, K562; growth inhibition, one dose; read-out: Growth% inhibition / 5c
Protocol: as §2

NCI-H226 = test: cells; parameters: species or system NCI-60 human tumour cell lines; NCI-60 one-dose screen at 10 uM, percent growth inhibition versus untreated control cells; details: Homo sapiens, NCI-H226, growth inhibition, one dose
Protocol: as §2

NCI-H322M = test: cells; parameters: species or system NCI-60 human tumour cell lines; NCI-60 one-dose screen at 10 uM, percent growth inhibition versus untreated control cells; details: Homo sapiens, NCI-H322M; growth inhibition, one dose; read-out: Growth% inhibition / 5c
Protocol: as §2

BT-549 = test: cells; parameters: species or system NCI-60 human tumour cell lines; NCI-60 one-dose screen at 10 uM, percent growth inhibition versus untreated control cells; details: Homo sapiens, BT-549; growth inhibition, one dose; read-out: Growth% inhibition / 5c
Protocol: as §2

RPMI-8226 = test: cells; parameters: species or system NCI-60 human tumour cell lines; NCI-60 one-dose screen at 10 uM, percent growth inhibition versus untreated control cells; details: Homo sapiens, RPMI-8226; growth inhibition, one dose; read-out: Growth% inhibition / 5c
Protocol: as §2

UO-31 = test: cells; parameters: species or system NCI-60 human tumour cell lines; NCI-60 one-dose screen at 10 uM, percent growth inhibition versus untreated control cells; details: Homo sapiens, UO-31, growth inhibition, one dose
Protocol: as §2

SF-539 = test: cells; parameters: species or system NCI-60 human tumour cell lines; NCI-60 one-dose screen at 10 uM, percent growth inhibition versus untreated control cells; details: Homo sapiens, SF-539; growth inhibition, one dose; read-out: Growth% inhibition / 5c
Protocol: as §2

UACC-62 = test: cells; parameters: species or system NCI-60 human tumour cell lines; NCI-60 one-dose screen at 10 uM, percent growth inhibition versus untreated control cells; details: Homo sapiens, UACC-62, growth inhibition, one dose
Protocol: as §2

IGROV1 = test: cells; parameters: species or system NCI-60 human tumour cell lines; NCI-60 one-dose screen at 10 uM, percent growth inhibition versus untreated control cells; details: Homo sapiens, IGROV-1, growth inhibition, one dose
Protocol: as §2

SR = test: cells; parameters: species or system NCI-60 human tumour cell lines; NCI-60 one-dose screen at 10 uM, percent growth inhibition versus untreated control cells; details: Homo sapiens, SR; growth inhibition, one dose; read-out: Growth% inhibition / 5f
Protocol: as §2

CAKI-1 = test: cells; parameters: species or system NCI-60 human tumour cell lines; NCI-60 one-dose screen at 10 uM, percent growth inhibition versus untreated control cells; details: Homo sapiens, CAKI-1; growth inhibition, one dose; read-out: Growth% inhibition / 5f
Protocol: as §2

HOP-92 = test: cells; parameters: species or system NCI-60 human tumour cell lines; NCI-60 one-dose screen at 10 uM, percent growth inhibition versus untreated control cells; details: Homo sapiens, HOP-92; growth inhibition, one dose; read-out: Growth% inhibition / 5f
Protocol: as §2

SNB-75 = test: cells; parameters: species or system NCI-60 human tumour cell lines; NCI-60 one-dose screen at 10 uM, percent growth inhibition versus untreated control cells; details: Homo sapiens, SNB-75, growth inhibition, one dose
Protocol: as §2

SIRT2 [3] = target: T1, SIRT2; test: sirtuin deacetylase inhibition assay, % inhibition at […] ([…] at […]); type: biochemical; remark: listed apart in the source
SIRT2 [4] = target: T1, SIRT2; test: as above; type: biochemical; remark: listed apart in the source
LOX IMVI = test: cells; parameters: species or system NCI-60 human tumour cell lines; NCI-60 one-dose screen at 10 uM, percent growth inhibition versus untreated control cells; details: Homo sapiens, LOX IMVI; growth inhibition, one dose; read-out: Growth% inhibition / 5g
Protocol: as §2

[5] = read-out: Growth% inhibition / 5c
[6] = read-out: Growth% inhibition / 5f
[7] = read-out: Growth% inhibition / 5g

SMILES: COc1cc(C=NNC(=O)/C=C/C=C/c2ccc3c(c2)OCO3)ccc1O [5c, (2E,4E)-5-(Benzo[d][1,3]dioxol-5-yl)-N′-((E,Z)-4-hydroxy-3-methoxybenzylidene)penta-2,4-dienehydrazide]
- inhibition at 5 µM (SIRT2 [1]): 17 ± 3%
- inhibition at 5 µM (SIRT1): 12 ± 1%
- inhibition at 50 µM (SIRT1): 38 ± 3%
- inhibition at 50 µM (SIRT2 [2]): 58 ± 3%
- inhibition at 10 µM (T-47D): 19.8%
- inhibition at 10 µM (MCF7): 20.1%
- inhibition at 10 µM (NCI-H522): 22%
- inhibition at 10 µM (CCRF-CEM): 12.1%
- inhibition at 10 µM (K-562): 10.5%
- inhibition at 10 µM (NCI-H226; [5]): 18.3%
- inhibition at 10 µM (NCI-H322M): 14.7%
- inhibition at 10 µM (BT-549): 13.6%
- inhibition at 10 µM (RPMI-8226): 15.3%
- inhibition at 10 µM (UO-31; [5]): 14%
- inhibition at 10 µM (SF-539): 15.3%
- inhibition at 10 µM (UACC-62; [5]): 11.3%

SMILES: O=C(/C=C/C=C/c1ccc2c(c1)OCO2)NN=C(c1ccc(F)cc1)c1ccc(F)cc1 [5f, (2E,4E)-5-(Benzo[d][1,3]dioxol-5-yl)-N′-(bis(4-fluorophenyl)methylene)penta-2,4-dienehydrazide]
- inhibition at 5 µM (SIRT2 [1]): 20 ± 4%
- inhibition at 5 µM (SIRT1): 14 ± 4%
- inhibition at 50 µM (SIRT1): 39 ± 3%
- inhibition at 10 µM (IGROV1; [6]): 12.1%
- inhibition at 10 µM (SR): 36.3%
- inhibition at 10 µM (CAKI-1): 12.8%
- inhibition at 10 µM (HOP-92): 13.8%
- inhibition at 10 µM (UO-31; [6]): 18.3%
- inhibition at 10 µM (SNB-75; [6]): 16.6%
- inhibition at 10 µM (UACC-62; [6]): 12.2%
- inhibition at 50 µM (SIRT2 [3]): 69 ± 3%

SMILES: CC(C)(C)c1cc(/C=N/NC(=O)/C=C/C=C/c2ccc3c(c2)OCO3)c(O)c(C(C)(C)C)c1 [5g, (2E,4E)-5-(Benzo[d][1,3]dioxol-5-yl)-N′-((E)-3,5-di-tert-butyl-2-hydroxy-benzylidene)penta-2,4-dienehydrazide]
- inhibition at 5 µM (SIRT2 [1]): 19 ± 2%
- inhibition at 5 µM (SIRT1): 9 ± 2%
- inhibition at 50 µM (SIRT1): 35 ± 1%
- inhibition at 50 µM (SIRT2 [4]): 55 ± 1%
- inhibition at 10 µM (IGROV1; [7]): 14.1%
- inhibition at 10 µM (LOX IMVI): 12.1%
- inhibition at 10 µM (NCI-H226; [7]): 10.1%
- inhibition at 10 µM (UO-31; [7]): 27.9%
- inhibition at 10 µM (SNB-75; [7]): 33%
